What was measured:
[1] = target: T1, STAT6 (Homo sapiens, UniProt P42226); test: Dephosphorylation of STAT6 (Western blot, anti-phosphorylated STAT6) in IL-4 stimulated cells; type: cell-based; conditions: U937, Jurkat and A549 cells; PLAG 0.01 to 10 μg/ml; 10 ng/ml IL-4; 15 min after stimulation
T1 construct: endogenous in cells; host or cells: U937, A549, Jurkat
T1 sequence (P42226 1-847): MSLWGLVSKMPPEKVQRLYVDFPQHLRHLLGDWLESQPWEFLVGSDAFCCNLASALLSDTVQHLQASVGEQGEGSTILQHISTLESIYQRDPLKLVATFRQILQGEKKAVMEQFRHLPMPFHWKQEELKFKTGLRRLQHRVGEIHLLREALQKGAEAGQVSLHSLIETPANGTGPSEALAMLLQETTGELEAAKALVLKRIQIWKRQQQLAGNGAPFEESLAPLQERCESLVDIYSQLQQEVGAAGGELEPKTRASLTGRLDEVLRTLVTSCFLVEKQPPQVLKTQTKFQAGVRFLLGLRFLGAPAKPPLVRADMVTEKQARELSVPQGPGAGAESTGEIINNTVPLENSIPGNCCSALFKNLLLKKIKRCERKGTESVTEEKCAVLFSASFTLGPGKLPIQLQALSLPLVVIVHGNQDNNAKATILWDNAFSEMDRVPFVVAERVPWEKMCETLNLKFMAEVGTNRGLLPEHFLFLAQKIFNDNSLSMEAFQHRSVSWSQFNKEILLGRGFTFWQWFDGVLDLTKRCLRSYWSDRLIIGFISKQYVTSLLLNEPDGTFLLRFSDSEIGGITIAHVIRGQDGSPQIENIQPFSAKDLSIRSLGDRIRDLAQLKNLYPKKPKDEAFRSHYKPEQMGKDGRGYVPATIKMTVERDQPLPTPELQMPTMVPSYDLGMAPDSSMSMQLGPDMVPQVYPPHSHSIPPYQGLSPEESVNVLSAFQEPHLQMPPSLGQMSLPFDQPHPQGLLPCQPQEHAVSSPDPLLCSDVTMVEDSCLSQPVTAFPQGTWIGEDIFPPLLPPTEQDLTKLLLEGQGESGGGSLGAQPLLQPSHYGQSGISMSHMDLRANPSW
Description: Dephosphorylation of STAT6 is examined using anti-phosphorylated STAT6 in U937, A549, and Jurkat cell lysates treated with PLAG at a concentration of from 0.01 to 10 μg/ml. Phosphorylation of STAT6 is induced by treatment with 10 ng/ml of IL-4. Dephosphorylation of STAT1 is examined in the U937 cell lysate treated with PLAG (0.01 to 10 μg/ml). Phosphorylation of STAT1 is induced by 10 ng of IFN-γ treatment. Dephosphorylation of STAT1 and STAT6 is examined at 15 min after stimulation with IFN-γ and IL-4 respectively, in the PLAG pretreated cells. […] The transcriptional activity of STAT6 is decreased by the dephosphorylation of STAT6. […] No effect of PLAG on STAT1 phosphorylation is observed.

[2] = test system: STAT6; test: STAT6 transcriptional activity (luciferase) in gene transfected HepG2 cells; type: cell-based, human; conditions: 10 ng IL-4, PLAG 0.01-10 μg/ml, 12 hour incubation
Description: (§1) By using STAT6 inhibitor (S6I), it is confirmed that the reduction of complement 3 in HepG2 cells (human hepatocyte cell line) is regulated by STAT6. […] It is also confirmed that PLAG has selective efficacy on STAT6 over STAT1. FIG. 1 presents graphs showing STAT1 and STAT6 transcriptional activity in the PLAG treated HepG2 cells. NC refers to the unstimulated control cell. For the STAT1 assay, gene transfected HepG2 (human hepatocyte cell line) is treated with 10 ng of IFN-γ and serially diluted PLAG is added (0.01 μg/ml, 0.1 μg/ml, 1 μg/ml, and 10 μg/ml as shown) to see its effect on gene expression in the stimulated cell. For the STAT6 assay, gene transfected HepG2 cells are treated with 10 ng of IL-4 and again serially diluted PLAG is added (0.01 μg/ml, 0.1 μg/ml, 1 μg/ml, and 10 μg/ml as shown) to see its effect on gene expression in the stimulated cell. The assay is carried out following a 12 hour incubation of treated cells.

[3] = test system: STAT1; test: STAT1 transcriptional activity (luciferase) in gene transfected HepG2 cells; type: cell-based, human; conditions: 10 ng IFN-γ, PLAG 0.01-10 μg/ml, 12 hour incubation
Description: as §1

[4] = test system: C3; test: C3 expression in HMC-1 cells induced with IL-4 and TNF-α (RT-PCR / blots); type: cell-based, human
Description: A blood cell line, HMC-1 (human mast cell, American Type Culture Collection, ATCC, Rockville, Md.) is incubated and maintained at 37° C. under 5% CO2 humid conditions. The medium is IMDM (Life Technologies, Karlsruhe, Germany) containing 10% Fetal Calf Serum (FCS, HyClone, Logan, Utah), 2 mM […], 100 μg/ml penicillin, 100 μg/ml streptomycin (Life Technologies). The cultured HMC-1 cells (1×10^6 cells/ml) are pre-treated with 0.1 and 1 μg/mL concentrations of PLAG, followed by treatment with IL-4 (5 ng) and/or TNF-α (10 ng) to induce cellular activities.
The expressed C3 and its mRNA level change are observed by using RT-PCR (Reverse Transcriptase Polymerase Chain Reaction). The RT-PCR is carried out as follows: the total RNA is separated by the standard protocol and cDNA is synthesized using AccuScript High Fidelity 1st Strand cDNA Synthesis Kit (Stratagene). Two-step RT-PCR reaction is conducted using Oligo-dT primer and reverse transcriptase, a pair of primers and Taq polymerase (Takara, Shiga, Japan). […] The product of PCR is separated using 1.5% agarose gel, dyed with ethidium bromide (EtBr), and visualized with Gel Doc 2000 UV trans-illuminator (Bio-Rad Laboratories, Hercules, Calif., USA), and the experimental data is analyzed using Quantity One software (Bio-Rad Laboratories).

[5] = test system: C3; test: C3 inhibition in HMC-1 cells, ELISA of expressed protein; type: cell-based, human; conditions: PLAG 1, 10 and 100 μg/mL for 2 hours; activated 72 hours with 10% FBS
Description: In a separate experiment, human mast cells (HMC-1, 1×10^5 cells/ml) are treated with PLAG at various concentrations (1, 10 and 100 μg/mL) for 2 hours. The cells are activated for 72 hours with 10% FBS (Fetal bovine serum)-containing IMDM. The decrease of C3 is confirmed by ELISA analysis of the expressed protein.

[6] = test system: C3; test: C3 mRNA expression in HepG2 cells by RT-PCR; type: cell-based, human
Description: A liver cell line, HepG2 (American Type Culture Collection, ATCC, Rockville, Md.), is incubated and maintained at 37° C., 5% CO2 humid atmosphere in DMEM medium. When HepG2 cells, which are known to produce complement in culture, are treated with PLAG, the activity of complement is reduced effectively, as confirmed by RT-PCR of mRNA. In the RT-PCR, 5×10^5 HepG2 cells/ml are distributed into 12 well plates and induced C3 for 12 hours with 10% FCS. Then PLAG is added and further cultured for 2 hours. Cells are harvested and mRNA is isolated and RT-PCR is carried out with specific primers for C3; GAPDH is used as an internal control.

[7] = test system: C3; test: C3 in culture supernatant of HepG2 cells by ELISA; type: cell-based, human; conditions: PLAG 1 to 100 μg/ml; IL-4 and TNF-α 1 hr, then 18 hr at 37° C.
Description: (§2) The incubated HepG2 cell lines are treated with PLAG (1˜100 μg/ml), followed by IL-4 and TNF-α, reacted for 1 hour, incubated for 18 hours at 37° C. and the supernatant is isolated. Quantitation of the amount of C3 in the cellular culture medium (supernatant) from HepG2 cells is performed by ELISA using a commercially available monoclonal antibody (mAb, R&D Systems) and the manufacture's protocol; the results are presented in FIGS. 3A-3C. C3 is expressed spontaneously under in vitro culture conditions using 10% FCS added to HepG2 cells incubated for 12 hr. The cells are treated with different doses of PLAG from 1 to 100 μg/ml (FIG. 3A, FIG. 3B) or 10 and 100 μg/ml of S6I (FIG. 3C), reacted with IL-4 and TNF-α for 1 hr and then incubated for 18 hr at 37° C. Cellular viability is confirmed using the WST-1 assay (FIG. 3A).

[8] = test system: HepG2 cells; test: WST-1 cell viability assay in HepG2 cells; type: cell-based; conditions: PLAG 1 to 100 μg/ml
Description: as §2

[9] = Colony forming units (CFUs) in spleen assay in heavily irradiated mice; type: in vivo; conditions: PLAG 50 mg/kg/d i.p. or p.o.
Description: Colony Forming Units (CFUs) in Spleen Assay in Vivo: In order to determine the in vivo effect of PLAG on the recovery of hematopoiesis, a CFUs assay is performed in heavily irradiated mice.

[10] = test system: complement 3; test: Complement 3 activation by chemotherapeutic agents in mouse model; type: in vivo; conditions: mice; PLAG 50 mg/kg daily 3 weeks with Gemcitabine, Cyclosphosphamide or Tamoxifen
Description: The effect of PLAG for treatment of chemotherapy-induced thrombocytopenia (CIT) is evaluated in an animal model. Anti-cancer agents (Gemcitabine 50 mg/kg, Cyclosphosphamide 100 mg/kg, or Tamoxifen 50 mg/kg) are dosed daily for 3 weeks; PLAG is also administered at a dose of 50 mg/kg daily for 3 weeks.
It is believed that the neutropenia and thrombocytopenia of these agents and other chemotherapeutic agents may be due at least in part to a specific complement-mediated toxicity. This is seen in FIG. 5.

[11] = test system: hematopoietic stem cells and megakaryocytes; conditions: reported in WO 99/26640; cited from earlier work

SMILES	IL-4 treatment induced STAT6 phosphorylation [1]	STAT6 expression (transcriptional activity, luciferase) [2]	STAT1 expression (transcriptional activity, luciferase) [3]	Expression of C3 in HMC-1 cells ([4]; pre-treated with 0.1 and 1 μg/mL PLAG, then IL-4 (5 ng) and TNF-α (10 ng))	Decrease of C3 (ELISA) in HMC-1 cells [5]	Inhibition of C3 expression (RT-PCR) in HepG2 ([6]; PLAG 1 μg/ml, 2 hours, C3 induced 12 hours with 10% FCS)	Inhibition of C3 expression (RT-PCR) in HepG2 ([6]; PLAG 10 μg/ml, 2 hours, C3 induced 12 hours with 10% FCS)	Expression of C3 (ELISA, HepG2 supernatant) [7]	Cellular propagation and death (WST-1 viability) [8]	Number of splenic nodules, primitive progenitor cells and megakaryocytes [9]	Complement 3 activation caused by chemotherapeutic agents [10]	Growth-stimulating activities of hematopoietic stem cells and megakaryocytes [11]	Expression of C3 in HMC-1 cells ([4]; IL-4 and TNF-α followed by S6I)	Inhibition of C3 expression (RT-PCR) in HepG2 ([6]; S6I 10 and 100 μg/ml, compared with PLAG 1 and 10 μg/ml)
CCCCC/C=C\C/C=C\CCCCCCCC(=O)OC(COC(C)=O)COC(=O)CCCCCCCCCCCCCCC (racemic) [PLAG, 1-palmitoyl-2-linoleoyl-3-acetylglycerol]	inhibited with increasing PLAG concentrations	significant, dose-dependent effect	no effect	suppressed by PLAG on a concentration dependent basis	proportional to the concentration of PLAG	somewhat	entirely	decreased dose-dependently	does not affect	marked increase	largely blocked	have growth-stimulating activities		
NC(=O)c1cnc(NCCc2ccc(O)c(Cl)c2)nc1NCc1ccccc1 [S6I, reference compound]													comparable	comparable

Source: patent US10653657B2, “Method for treating hemolytic uremic syndrome” (ENZYCHEM LIFESCIENCES CORPORATION, priority 2015, dated 2020)
